Results: publication PMC6073568, “Efficient Lead Finding, Activity Enhancement and Preliminary Selectivity Control of Nuclear Receptor Ligands Bearing a Phenanthridinone Skeleton” (International Journal of Molecular Sciences, 2018)
Read-outs that look alike come from different tables or passages of the source.

What was measured:
LXRβ = target: T1, LXRβ (Homo sapiens, UniProt P55055); test: LXRβ reporter gene assay in HEK293; format: cell-based; conditions: read-out: LXRβ antagonistic activity (IC50)
T1 construct: CMX-GAL4N-hLXRβ-LBD; expressed in transfected cells; host or cells: HEK293
T1 sequence (P55055 222-460 limits assumed): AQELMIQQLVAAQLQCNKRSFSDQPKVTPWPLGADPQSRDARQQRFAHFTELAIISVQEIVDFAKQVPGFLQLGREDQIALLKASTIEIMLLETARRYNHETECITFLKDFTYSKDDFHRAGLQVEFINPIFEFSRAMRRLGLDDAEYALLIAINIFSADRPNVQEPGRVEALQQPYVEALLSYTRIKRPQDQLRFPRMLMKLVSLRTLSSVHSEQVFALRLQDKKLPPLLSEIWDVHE

PR [1] = target: T2, PR (Homo sapiens, UniProt P06401); test: T-47D alkaline phosphatase assay (PR antagonism); format: cell-based; conditions: compared with 7
T2 sequence (P06401 1-933): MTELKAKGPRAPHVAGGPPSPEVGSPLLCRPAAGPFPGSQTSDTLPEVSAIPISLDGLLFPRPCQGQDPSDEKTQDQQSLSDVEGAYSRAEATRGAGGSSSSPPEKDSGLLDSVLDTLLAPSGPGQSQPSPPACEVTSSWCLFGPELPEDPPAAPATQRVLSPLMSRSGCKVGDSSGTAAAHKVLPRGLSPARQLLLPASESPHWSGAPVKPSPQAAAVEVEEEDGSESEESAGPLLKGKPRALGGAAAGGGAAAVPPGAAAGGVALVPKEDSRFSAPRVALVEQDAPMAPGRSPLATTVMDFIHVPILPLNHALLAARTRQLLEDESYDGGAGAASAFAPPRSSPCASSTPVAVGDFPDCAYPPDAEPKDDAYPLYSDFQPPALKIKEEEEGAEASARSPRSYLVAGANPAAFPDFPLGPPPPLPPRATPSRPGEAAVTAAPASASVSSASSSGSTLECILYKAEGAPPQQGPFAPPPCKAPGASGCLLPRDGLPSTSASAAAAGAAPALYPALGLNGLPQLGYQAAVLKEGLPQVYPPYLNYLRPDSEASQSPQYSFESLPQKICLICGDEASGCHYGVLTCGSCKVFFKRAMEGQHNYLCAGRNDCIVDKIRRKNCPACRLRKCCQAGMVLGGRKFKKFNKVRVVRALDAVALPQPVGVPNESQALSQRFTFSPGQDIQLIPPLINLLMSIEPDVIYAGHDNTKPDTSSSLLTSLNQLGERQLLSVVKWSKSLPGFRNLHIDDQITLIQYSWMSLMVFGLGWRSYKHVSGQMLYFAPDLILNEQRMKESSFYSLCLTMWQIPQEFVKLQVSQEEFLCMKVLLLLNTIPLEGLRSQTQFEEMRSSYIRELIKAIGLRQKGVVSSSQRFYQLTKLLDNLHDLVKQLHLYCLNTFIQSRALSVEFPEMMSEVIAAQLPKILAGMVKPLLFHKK

AR = target: T3, AR (Homo sapiens, UniProt P10275); test: AR reporter gene assay in HEK293; format: cell-based; conditions: for IC50: reporter gene assay, HEK293
T3 sequence (P10275 1-920): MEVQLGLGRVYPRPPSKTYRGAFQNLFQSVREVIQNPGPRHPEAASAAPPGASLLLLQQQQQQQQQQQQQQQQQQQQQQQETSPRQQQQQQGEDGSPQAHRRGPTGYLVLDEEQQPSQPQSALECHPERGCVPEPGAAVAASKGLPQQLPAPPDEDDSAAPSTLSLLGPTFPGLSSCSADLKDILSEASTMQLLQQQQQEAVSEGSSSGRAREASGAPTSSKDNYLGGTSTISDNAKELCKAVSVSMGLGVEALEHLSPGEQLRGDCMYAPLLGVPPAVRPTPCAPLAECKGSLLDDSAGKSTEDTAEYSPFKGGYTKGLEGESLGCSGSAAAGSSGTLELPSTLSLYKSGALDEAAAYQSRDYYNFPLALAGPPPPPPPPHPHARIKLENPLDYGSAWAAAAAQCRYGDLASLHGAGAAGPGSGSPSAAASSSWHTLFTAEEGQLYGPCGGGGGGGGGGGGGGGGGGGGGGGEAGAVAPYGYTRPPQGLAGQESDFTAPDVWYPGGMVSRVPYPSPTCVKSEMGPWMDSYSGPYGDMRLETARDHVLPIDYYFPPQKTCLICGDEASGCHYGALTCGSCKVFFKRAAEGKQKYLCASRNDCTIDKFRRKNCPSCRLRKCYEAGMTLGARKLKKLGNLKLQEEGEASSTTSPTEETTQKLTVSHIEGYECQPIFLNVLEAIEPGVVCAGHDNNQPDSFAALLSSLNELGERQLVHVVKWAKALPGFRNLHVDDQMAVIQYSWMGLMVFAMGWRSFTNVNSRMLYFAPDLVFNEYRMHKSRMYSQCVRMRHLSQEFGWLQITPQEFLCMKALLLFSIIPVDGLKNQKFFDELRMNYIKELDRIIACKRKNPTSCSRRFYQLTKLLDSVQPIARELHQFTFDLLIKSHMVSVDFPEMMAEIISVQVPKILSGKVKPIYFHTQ

GR = target: T4, GR (Homo sapiens, UniProt P04150); test: GR reporter gene assay in HEK293; format: cell-based; conditions: reporter gene assay, HEK293; agonist dexamethasone 1 nM; read-out: GR antagonistic activity (IC50)
T4 construct: expressed in transfected cells; host or cells: HEK293
T4 sequence (P04150 1-777): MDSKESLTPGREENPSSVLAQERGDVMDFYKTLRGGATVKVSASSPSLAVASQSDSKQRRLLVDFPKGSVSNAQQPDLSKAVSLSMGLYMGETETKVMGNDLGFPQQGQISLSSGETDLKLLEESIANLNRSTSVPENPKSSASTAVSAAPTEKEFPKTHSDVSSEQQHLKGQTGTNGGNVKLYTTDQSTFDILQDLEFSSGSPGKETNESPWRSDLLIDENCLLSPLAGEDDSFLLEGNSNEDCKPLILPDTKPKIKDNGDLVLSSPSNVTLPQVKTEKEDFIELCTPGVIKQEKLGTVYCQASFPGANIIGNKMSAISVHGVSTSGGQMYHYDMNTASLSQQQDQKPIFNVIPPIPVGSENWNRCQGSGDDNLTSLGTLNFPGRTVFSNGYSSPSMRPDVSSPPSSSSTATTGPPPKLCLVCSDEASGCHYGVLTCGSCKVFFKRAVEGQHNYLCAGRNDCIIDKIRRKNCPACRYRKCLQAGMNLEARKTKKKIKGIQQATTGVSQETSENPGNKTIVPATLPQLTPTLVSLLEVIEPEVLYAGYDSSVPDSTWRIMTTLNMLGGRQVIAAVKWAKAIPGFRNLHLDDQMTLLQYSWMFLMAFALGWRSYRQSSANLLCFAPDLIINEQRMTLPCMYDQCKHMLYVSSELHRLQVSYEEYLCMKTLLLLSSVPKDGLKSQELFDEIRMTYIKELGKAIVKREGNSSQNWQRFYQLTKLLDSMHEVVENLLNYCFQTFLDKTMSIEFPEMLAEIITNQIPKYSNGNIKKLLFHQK

LXRα = target: T5, LXRα (Homo sapiens, UniProt Q13133); test: LXRα reporter gene assay in HEK293; format: cell-based; conditions: read-out: LXRα antagonistic activity (IC50)
T5 construct: CMX-GAL4N-hLXRα-LBD; expressed in transfected cells; host or cells: HEK293
T5 sequence (Q13133 209-447 limits assumed): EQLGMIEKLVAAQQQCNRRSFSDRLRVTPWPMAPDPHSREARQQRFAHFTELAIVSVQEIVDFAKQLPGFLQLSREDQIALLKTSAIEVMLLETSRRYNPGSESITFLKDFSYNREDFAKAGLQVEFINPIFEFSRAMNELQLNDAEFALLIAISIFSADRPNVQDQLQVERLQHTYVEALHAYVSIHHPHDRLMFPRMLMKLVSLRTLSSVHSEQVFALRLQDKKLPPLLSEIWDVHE

PR [2] = target: T2, PR; conditions: alkaline phosphatase, T47D cells, progesterone 1 nM; read-out: PR antagonistic activity (IC50); cited from earlier work
[3] = agonist dihydrotestosterone 0.3 nM, read-out: AR antagonistic activity (IC50), AR reporter gene

Compound | IC50 (LXRβ) [µM] | increase of PR activity (PR [1]) [fold] | selectivity for AR over LXRs (AR) [fold] | selectivity for AR over PR (AR) | selectivity for AR over RORs and GR (AR) | increase of AR activity (AR; compared with 7) [fold] | IC50 (AR; [3]) [µM] | IC50 (AR; read-out: AR antagonistic activity IC50) [µM] | IC50 (GR) [µM] | IC50 (LXRα) [µM] | IC50 (PR [2]) [µM]
CCCCn1c(=O)c2ccccc2c2cc(C(O)(C(F)(F)F)C(F)(F)F)ccc21 [Compound 12] | 3.7 | 6 | ~50 | about 7.8 fold | more than 200 fold | 9 | 1.8 | 0.1 | 7.4 | 8.4 | 
CCCCn1c(=O)c2ccc(C(F)(F)F)cc2c2cc(C(O)(C(F)(F)F)C(F)(F)F)ccc21 [Compound 37] | 4.4 ± 0.8 |  |  |  |  |  | > 20 |  | > 20 | 7.1 | 4.2
